In US7846959B2, “Raf modulators and methods of use” (Exelixis, Inc., priority 2004, dated 2010) one finds IC50 data, which are given here for 29 compounds.

Usually IC50 stands for the midpoint of a concentration-inhibition curve.

Where two headings read alike, the source gives them in different places. A value given as a limit tells only on which side of the number the result lay.

Test [1] deals with B-Raf (Homo sapiens, UniProt P15056). Kind of test: Luciferase-coupled chemiluminescence kinase assay (ATP consumption), B-Raf. Format: biochemical. As for the experimental part:
(§1) Tyrosine kinase activity is determined by 1) measurement of kinase-dependent ATP consumption by in the presence of a generic substrate such as […], tyrosine (pEY), by luciferase/luciferin-mediated chemiluminescence or; 2) incorporation of radioactive phosphate derived from ^33P-ATP into a generic substrate which has been adsorbed onto the well surface of polystyrene microtiter plates. Phosphorylated substrate products are quantified by scintillation spectrometry.
(§2) Luciferase-Coupled Chemiluminescence Assay Protocol
(§3) Kinase activity is measured as the percent of ATP consumed following the kinase reaction using luciferase-luciferin-coupled chemiluminescence. Reactions were conducted in 384-well white, medium binding microtiter plates (Greiner). Kinase reactions were initiated by combining test compounds, ATP and kinase in a 20 uL volume. The reaction mixture was incubated at ambient temperature for 3 hrs. For c-Raf, B-Raf, and B-RafV599E, […] of the enzyme was pre-incubated with compound in 20 mM Tris pH 7.5, 10 mM MgCl2, 0.03% TX-100, and 1 mM DTT for 30 minutes at room temperature. Following the kinase reaction, a 20 μL aliquot of luciferase-luciferin mix was added and the chemiluminescence signal measured using a Victor^2 plate reader (Perkin Elmer). The luciferase-luciferin mix contained 50 mM HEPES, pH 7.8, 67 mM oxalic acid (pH 7.8), 5 (or 50) mM DTT, 0.4% Triton X-100, 0.25 mg/mL coenzyme A, 63 μM AMP, 28 μg/mL luciferin and 40,000 units/mL luciferase. Total ATP consumption was limited to 25-60% and the IC50 values correlate well with those determined by radiometric assays.

Test [2] deals with c-Raf (Homo sapiens, UniProt P04049). Kind of test: Luciferase-coupled chemiluminescence kinase assay (ATP consumption), c-Raf. Type of test: biochemical. The conditions noted are these: read-out: cRaf-1 IC50. As for the experimental part:
as §1, §2, §3

The mark [3] stands for this setting: read-out: bRaf (inhibition indicated as IC50).

c-Raf, sequence (P04049 whole entry): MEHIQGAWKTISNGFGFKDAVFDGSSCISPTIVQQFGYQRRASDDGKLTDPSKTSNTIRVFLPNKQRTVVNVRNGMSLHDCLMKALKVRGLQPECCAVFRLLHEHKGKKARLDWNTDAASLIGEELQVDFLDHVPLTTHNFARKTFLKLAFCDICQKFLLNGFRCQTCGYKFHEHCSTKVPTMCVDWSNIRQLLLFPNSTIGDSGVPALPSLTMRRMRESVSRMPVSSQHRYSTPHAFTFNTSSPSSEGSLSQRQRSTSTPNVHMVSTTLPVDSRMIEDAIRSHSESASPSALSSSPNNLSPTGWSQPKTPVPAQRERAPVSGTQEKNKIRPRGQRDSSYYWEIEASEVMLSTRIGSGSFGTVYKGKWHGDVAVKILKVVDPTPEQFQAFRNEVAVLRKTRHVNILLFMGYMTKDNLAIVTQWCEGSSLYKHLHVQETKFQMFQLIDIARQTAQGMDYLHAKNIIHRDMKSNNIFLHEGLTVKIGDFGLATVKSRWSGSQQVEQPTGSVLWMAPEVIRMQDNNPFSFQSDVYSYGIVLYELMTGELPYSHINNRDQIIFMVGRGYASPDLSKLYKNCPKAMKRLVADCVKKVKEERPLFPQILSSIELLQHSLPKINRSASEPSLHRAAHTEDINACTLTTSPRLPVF
B-Raf, sequence (P15056 whole entry): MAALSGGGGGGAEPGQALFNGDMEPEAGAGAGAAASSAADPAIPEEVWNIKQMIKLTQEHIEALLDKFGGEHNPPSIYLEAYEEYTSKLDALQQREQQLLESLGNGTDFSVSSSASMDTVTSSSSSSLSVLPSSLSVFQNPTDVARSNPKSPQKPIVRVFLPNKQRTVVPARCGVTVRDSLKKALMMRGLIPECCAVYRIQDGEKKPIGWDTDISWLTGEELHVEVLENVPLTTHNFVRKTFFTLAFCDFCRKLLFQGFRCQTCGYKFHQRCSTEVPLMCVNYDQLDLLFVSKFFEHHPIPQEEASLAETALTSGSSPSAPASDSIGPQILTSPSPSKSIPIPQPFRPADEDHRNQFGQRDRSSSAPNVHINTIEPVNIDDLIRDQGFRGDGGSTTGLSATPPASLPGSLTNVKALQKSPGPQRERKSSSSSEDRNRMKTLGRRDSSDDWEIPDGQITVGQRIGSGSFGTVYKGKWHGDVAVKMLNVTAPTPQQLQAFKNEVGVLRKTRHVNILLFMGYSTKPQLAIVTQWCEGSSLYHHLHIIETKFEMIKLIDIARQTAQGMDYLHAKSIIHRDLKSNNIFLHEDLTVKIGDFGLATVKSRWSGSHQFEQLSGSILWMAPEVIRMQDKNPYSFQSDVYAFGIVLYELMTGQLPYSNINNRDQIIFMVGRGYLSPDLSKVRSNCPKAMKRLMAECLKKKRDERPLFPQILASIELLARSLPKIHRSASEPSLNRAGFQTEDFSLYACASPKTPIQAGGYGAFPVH

With `O=C1COc2ccc(C3(O)c4ccccc4C(=O)N3Cc3ccccc3Cl)cc2N1` (stereo not shown) [Entry 35, 6-{2-[(2-chlorophenyl)methyl]-1-hydroxy-3-oxo-2,3-dihydro-1H-isoindol-1-yl}-2H-1,4-benzoxazin-3(4H)-one], the IC50 in test [1] (read-out: bRaf IC50) is ≥ 10000 nM; in test [2], 1000 to 10000 nM.

For `O=C1COc2ccc(C3(O)c4ccccc4C(=O)N3Cc3cccc(F)c3)cc2N1` (stereo not shown) [Entry 36, 6-{2-[(3-fluorophenyl)methyl]-1-hydroxy-3-oxo-2,3-dihydro-1H-isoindol-1-yl}-2H-1,4-benzoxazin-3(4H)-one], the IC50 in test [1] (read-out: bRaf IC50) and in test [2] was 1000 to 10000 nM throughout.

Consider `O=C1COc2ccc(C3(O)c4ccccc4C(=O)N3Cc3ccccc3Br)cc2N1` (stereo not shown) [Entry 37, 6-{2-[(2-bromophenyl)methyl]-1-hydroxy-3-oxo-2,3-dihydro-1H-isoindol-1-yl}-2H-1,4-benzoxazin-3(4H)-one], for which the IC50 in test [1] (read-out: bRaf IC50) and in test [2] was ≥ 10000 nM in each case.

Turning to `O=C1COc2ccc(C3(O)c4ccccc4C(=O)N3Cc3ccccc3F)cc2N1` (stereo not shown) [Entry 38, 6-{2-[(2-fluorophenyl)methyl]-1-hydroxy-3-oxo-2,3-dihydro-1H-isoindol-1-yl}-2H-1,4-benzoxazin-3(4H)-one], the IC50 in test [1] (read-out: bRaf IC50) was ≥ 10000 nM; in test [2] it was 1000 to 10000 nM.

With `O=C1COc2ccc(C3(O)c4ccccc4C(=O)N3c3cccc(F)c3)cc2N1` (stereo not shown) [Entry 39, 6-[2-(3-fluorophenyl)-1-hydroxy-3-oxo-2,3-dihydro-1H-isoindol-1-yl]-2H-1,4-benzoxazin-3(4H)-one], the IC50 in test [1] (read-out: bRaf IC50) fell in the range of 1000 to 10000 nM; in test [2], 100 to 1000 nM.

Consider `O=C1COc2ccc(C3(O)c4ccccc4C(=O)N3c3cccc(I)c3)cc2N1` (stereo not shown) [Entry 40, 6-[1-hydroxy-2-(3-iodophenyl)-3-oxo-2,3-dihydro-1H-isoindol-1-yl]-2H-1,4-benzoxazin-3(4H)-one], for which the concentration for half-maximal inhibition (IC50) in test [1] (read-out: bRaf IC50) was 100 to 1000 nM; in test [2], < 100 nM.

Regarding `O=C1COc2ccc(C3(O)c4ccccc4C(=O)N3c3cccc(Br)c3)cc2N1` (stereo not shown) [Entry 41, 6-[2-(3-bromophenyl)-1-hydroxy-3-oxo-2,3-dihydro-1H-isoindol-1-yl]-2H-1,4-benzoxazin-3(4H)-one], the IC50 in test [1] (read-out: bRaf IC50) was 100 to 1000 nM; in test [2], < 100 nM.

Regarding `O=C1COc2ccc(C3(O)c4ccccc4C(=O)N3c3cccc([N+](=O)[O-])c3)cc2N1` (stereo not shown) [Entry 42, 6-[1-hydroxy-2-(3-nitrophenyl)-3-oxo-2,3-dihydro-1H-isoindol-1-yl]-2H-1,4-benzoxazin-3(4H)-one], the IC50 in test [1] (read-out: bRaf IC50) was 1000 to 10000 nM; in test [2], 100 to 1000 nM.

Consider `COc1cccc(N2C(=O)c3ccccc3C2(O)c2ccc3c(c2)NC(=O)CO3)c1` (stereo not shown) [Entry 43, 6-{1-hydroxy-2-[3-(methyloxy)phenyl]-3-oxo-2,3-dihydro-1H-isoindol-1-yl}-2H-1,4-benzoxazin-3(4H)-one], for which the 50% inhibitory concentration (IC50) in test [1] (read-out: bRaf IC50) and in test [2] was 100 to 1000 nM throughout.

On to `Cc1cccc(N2C(=O)c3ccccc3C2(O)c2ccc3c(c2)NC(=O)CO3)c1` (stereo not shown) [Entry 44, 6-[1-hydroxy-2-(3-methylphenyl)-3-oxo-2,3-dihydro-1H-isoindol-1-yl]-2H-1,4-benzoxazin-3(4H)-one], for which the IC50 in test [1] (read-out: bRaf IC50) and in test [2] was 100 to 1000 nM throughout.

Take `Nc1ccccc1N1C(=O)c2ccccc2C1(O)c1ccc2c(c1)NC(=O)CO2` (stereo not shown) [Entry 47, 6-[2-(2-aminophenyl)-1-hydroxy-3-oxo-2,3-dihydro-1H-isoindol-1-yl]-2H-1,4-benzoxazin-3(4H)-one]: the IC50 in test [1] (read-out: bRaf IC50) and in test [2] was 100 to 1000 nM each time.

For the compound `O=C1COc2ccc(C(=O)c3ccccc3-c3nc(-c4ccccc4)no3)cc2N1` [Entry 48, 6-{[2-(3-phenyl-1,2,4-oxadiazol-5-yl)phenyl]carbonyl}-2H-1,4-benzoxazin-3(4H)-one], the IC50 in test [1] (read-out: bRaf IC50) and in test [2] was ≥ 10000 nM in each case.

With `O=C1COc2ccc(C(=O)c3ccccc3-c3nc4ccccc4[nH]3)cc2N1` [Entry 49, 6-{[2-(1H-benzimidazol-2-yl)phenyl]carbonyl}-2H-1,4-benzoxazin-3(4H)-one], the IC50 in test [1] (read-out: bRaf IC50) and in test [2] was ≥ 10000 nM throughout.

For `O=C1COc2ccc(C3(O)c4ccccc4C(=O)N3Cc3ccccc3C(F)(F)F)cc2N1` (stereo not shown) [Entry 50, 6-(1-hydroxy-3-oxo-2-{[2-(trifluoromethyl)phenyl]methyl}-2,3-dihydro-1H-isoindol-1-yl)-2H-1,4-benzoxazin-3(4H)-one], the IC50 in test [1] (read-out: bRaf IC50) and in test [2] was ≥ 10000 nM each time.

For `O=C1COc2ccc(C3(O)c4ccccc4C(=O)N3Cc3cc(Br)ccc3F)cc2N1` (stereo not shown) [Entry 51, 6-{2-[(5-bromo-2-fluorophenyl)methyl]-1-hydroxy-3-oxo-2,3-dihydro-1H-isoindol-1-yl}-2H-1,4-benzoxazin-3(4H)-one], the IC50 in test [1] (read-out: bRaf IC50) and in test [2] was 1000 to 10000 nM in each case.

`O=C1COc2ccc(C3(O)c4ccccc4C(=O)N3Cc3cccc([N+](=O)[O-])c3)cc2N1` (stereo not shown) [Entry 52, 6-{1-hydroxy-2-[(3-nitrophenyl)methyl]-3-oxo-2,3-dihydro-1H-isoindol-1-yl}-2H-1,4-benzoxazin-3(4H)-one]: the IC50 in test [1] (read-out: bRaf IC50) and in test [2] was 1000 to 10000 nM throughout.

On to `O=C1COc2ccc(C3(O)c4ccccc4C(=O)N3Cc3cccc(C(F)(F)F)c3)cc2N1` (stereo not shown) [Entry 53, 6-(1-hydroxy-3-oxo-2-{[3-(trifluoromethyl)phenyl]methyl}-2,3-dihydro-1H-isoindol-1-yl)-2H-1,4-benzoxazin-3(4H)-one], for which the IC50 in test [1] (read-out: bRaf IC50) and in test [2] was ≥ 10000 nM throughout.

For `COC(=O)Nc1nc2ccc(C(=O)c3ccccc3C(=O)Nc3cccc(C)c3)cc2[nH]1` [Entry 393, methyl {6-[(2-{[(3-methylphenyl)amino]carbonyl}phenyl)carbonyl]-1H-benzimidazol-2-yl}carbamate], the IC50 in test [1] (setting [3]) was < 100 nM.

In the case of `COC(=O)Nc1nc2ccc(C(=O)c3ccccc3C(=O)Nc3cccc(F)c3)cc2[nH]1` [Entry 396, methyl {6-[(2-{[(3-fluorophenyl)amino]carbonyl}phenyl)carbonyl]-1H-benzimidazol-2-yl}carbamate], the IC50 in test [1] (setting [3]) was < 100 nM.

Take `CCc1cccc(NC(=O)c2ccccc2C(=O)c2ccc3nc(NC(=O)OC)[nH]c3c2)c1` [Entry 399, methyl {6-[(2-{[(3-ethylphenyl)amino]carbonyl}phenyl)carbonyl]-1H-benzimidazol-2-yl}carbamate]: the IC50 in test [1] (setting [3]) is < 100 nM.

Turning to `C#Cc1cccc(NC(=O)c2ccccc2C(=O)c2ccc3nc(NC(=O)OC)[nH]c3c2)c1` [Entry 400, methyl {6-[(2-{[(3-ethynylphenyl)amino]carbonyl}phenyl)carbonyl]-1H-benzimidazol-2-yl}carbamate], the IC50 in test [1] (setting [3]) is < 100 nM.

Take `COC(=O)Nc1nc2ccc(C(=O)c3ccccc3C(=O)Nc3cccc(I)c3)cc2[nH]1` [Entry 403, methyl {6-[(2-{[(3-iodophenyl)amino]carbonyl}phenyl)carbonyl]-1H-benzimidazol-2-yl}carbamate]: the IC50 in test [1] (setting [3]) is < 100 nM.

As to `COC(=O)Nc1nc2ccc(C(=O)c3ccccc3C(=O)Nc3cccc(C(C)C)c3)cc2[nH]1` [Entry 404, methyl (6-{[2-({[3-(1-methylethyl)phenyl]amino}carbonyl)phenyl]carbonyl}-1H-benzimidazol-2-yl)carbamate], in test [1] (setting [3]), the IC50 is < 100 nM.

Turning to `COC(=O)Nc1nc2ccc(C(=O)c3ccccc3C(=O)NCc3ccsc3)cc2[nH]1` [Entry 405, methyl {6-[(2-{[(3-thienylmethyl)amino]carbonyl}phenyl)carbonyl]-1H-benzimidazol-2-yl}carbamate], the IC50 in test [1] (setting [3]) was < 100 nM.

Consider `COC(=O)Nc1nc2ccc(C(=O)c3ccccc3C(=O)Nc3cc(Br)ccc3F)cc2[nH]1` [Entry 409, methyl {6-[(2-{[(5-bromo-2-fluorophenyl)amino]carbonyl}phenyl)carbonyl]-1H-benzimidazol-2-yl}carbamate], for which the IC50 in test [1] (setting [3]) is < 100 nM.

In the case of `COC(=O)Nc1nc2ccc(C(=O)c3ccccc3C(=O)Nc3cccc(Br)c3F)cc2[nH]1` [Entry 412, methyl {6-[(2-{[(3-bromo-2-fluorophenyl)amino]carbonyl}phenyl)carbonyl]-1H-benzimidazol-2-yl}carbamate], the half-maximal inhibitory concentration (IC50) in test [1] (setting [3]) was < 100 nM.

In the case of `COC(=O)Nc1nc2ccc(C(=O)c3ccccc3C(=O)Nc3cc(Cl)ccc3C)cc2[nH]1` [Entry 415, methyl {6-[(2-{[(5-chloro-2-methylphenyl)amino]carbonyl}phenyl)carbonyl]-1H-benzimidazol-2-yl}carbamate], the 50% inhibitory concentration (IC50) in test [1] (setting [3]) was < 100 nM.

On to `COC(=O)Nc1nc2ccc(C(=O)c3ccccc3C(=O)Nc3cc(Br)ccc3C)cc2[nH]1` [Entry 416, methyl {6-[(2-{[(5-bromo-2-methylphenyl)amino]carbonyl}phenyl)carbonyl]-1H-benzimidazol-2-yl}carbamate], for which the IC50 in test [1] (setting [3]) was < 100 nM.

With `COC(=O)Nc1nc2ccc(C(=O)c3ccccc3C(=O)Nc3cccc(I)c3F)cc2[nH]1` [Entry 417, methyl {6-[(2-{[(2-fluoro-3-iodophenyl)amino]carbonyl}phenyl)carbonyl]-1H-benzimidazol-2-yl}carbamate], in test [1] (setting [3]), the IC50 is < 100 nM.
